We go through 2 compounds from patent US6476077B1, “N-(2-phenyl-4-amino-butyl)-1-naphthamides as neurokinin-1 receptor antagonists” (Astrazeneca AB, priority 1999, dated 2002).

In the assay the target is T1, NK1 receptor (Oryctolagus cuniculus, UniProt G1SEI7).
T1 construct: The pulmonary arteries are isolated from the rest of the tissues and cut in half to serve as pairs; from tissue; host or cells: rabbit pulmonary artery rings (male New Zealand white rabbit)
The experiment in a line: Rabbit Pulmonary Artery: NK1 in vitro functional assay (Test C). It is filed as biochemical. To be noted: rabbit pulmonary artery rings; antagonism of relaxation by agonist ASMSP; -log molar KB; read-out: NK1 pKb (Test C) (converted). The procedure: Rabbit Pulmonary Artery: NK1 in vitro functional assay (Test C)
The ability of a Compound of the invention to antagonize the action of the agonist Ac-[Arg^6, Sar^9, Met(O2)^11]
Male New Zealand white rabbits are euthanized via i.v. injection into an ear vein with 60 mg/kg Nembutal (50 mg/ml). Preceding the Nembutal into the vein is Heparin (1000 units/ml) at 0.0025 ml/kg for anticoagulant purposes. The chest cavity is opened from the top of the rib cage to the sternum and the heart, lungs and part of the trachea are removed. The pulmonary arteries are isolated from the rest of the tissues and cut in half to serve as pairs.
The segments are suspended between stainless steel stirrups, so as not to remove any of the endothelium, and placed in water-jacketed (37.0° C.) tissue baths containing physiological salt solution of the following composition (mM): NaCl, 118.0; KCl, 4.7; CaCl2, 1.8; MgCl2, 0.54; NaH2PO4, 1.0; NaHCO3, 25.0; glucose, 11.0; indomethacin, 0.005(to inhibit cyclooxygenase); and dl-Propranolol, 0.001(to block β receptors); gassed continuously with 95% O2-5% CO2. Responses are measured on a Grass polygraph via Grass FT-03 transducers and the electrical signals (data) acquired using a Mi^2 software/hardware system for subsequent conversion to measures of relaxation. […]

The structures appear in SMILES notation.

T1 sequence (G1SEI7 1-407): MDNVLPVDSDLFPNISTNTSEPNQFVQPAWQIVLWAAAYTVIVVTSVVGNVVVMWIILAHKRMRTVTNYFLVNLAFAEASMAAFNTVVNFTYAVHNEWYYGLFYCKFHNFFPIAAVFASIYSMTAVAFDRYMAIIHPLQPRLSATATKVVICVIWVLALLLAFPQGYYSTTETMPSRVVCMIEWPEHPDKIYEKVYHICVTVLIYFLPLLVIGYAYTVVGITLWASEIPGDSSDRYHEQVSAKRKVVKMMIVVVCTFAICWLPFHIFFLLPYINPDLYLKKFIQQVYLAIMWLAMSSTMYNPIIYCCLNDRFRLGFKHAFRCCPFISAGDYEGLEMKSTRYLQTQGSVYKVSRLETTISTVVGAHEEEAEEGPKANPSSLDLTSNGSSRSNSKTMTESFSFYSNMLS

Turning to `COc1c(C#N)cc2ccccc2c1C(=O)N(C)CC(CCN1CCOCC1)c1ccc(Cl)c(Cl)c1` (centres unmarked) [Example 4], the Kb was 5.01 nM. On to `COc1c(C#N)cc2ccccc2c1C(=O)N(C)CC(CCN(C)C)c1ccc(Cl)c(Cl)c1` (centres unmarked) [Example 6], for which the Kb is 2 nM.
